According to ChEMBL document CHEMBL5150005, “Discovery of 5-{4-[(7-Ethyl-6-oxo-5,6-dihydro-1,5-naphthyridin-3-yl)methyl]piperazin-1-yl}-N-methylpyridine-2-carboxamide (AZD5305): A PARP1-DNA Trapper with High Selectivity for PARP1 over PARP2 and Other PARPs” (J Med Chem, 2021):
Converted amounts (≈) assume the structure as drawn. The source made the active and inactive calls. No cut-off for these calls is given here.

What was measured:
[1] = target: Poly [ADP-ribose] polymerase 2 (Homo sapiens, UniProt Q9UGN5); test: Inhibition of human recombinant N-terminal Avi-6His-TEV tagged PARP2 full length expressed in pFastBac expression system incubated for 4 hrs by fluorescence anisotropy binding assay
Poly [ADP-ribose] polymerase 2, sequence (Q9UGN5 whole entry): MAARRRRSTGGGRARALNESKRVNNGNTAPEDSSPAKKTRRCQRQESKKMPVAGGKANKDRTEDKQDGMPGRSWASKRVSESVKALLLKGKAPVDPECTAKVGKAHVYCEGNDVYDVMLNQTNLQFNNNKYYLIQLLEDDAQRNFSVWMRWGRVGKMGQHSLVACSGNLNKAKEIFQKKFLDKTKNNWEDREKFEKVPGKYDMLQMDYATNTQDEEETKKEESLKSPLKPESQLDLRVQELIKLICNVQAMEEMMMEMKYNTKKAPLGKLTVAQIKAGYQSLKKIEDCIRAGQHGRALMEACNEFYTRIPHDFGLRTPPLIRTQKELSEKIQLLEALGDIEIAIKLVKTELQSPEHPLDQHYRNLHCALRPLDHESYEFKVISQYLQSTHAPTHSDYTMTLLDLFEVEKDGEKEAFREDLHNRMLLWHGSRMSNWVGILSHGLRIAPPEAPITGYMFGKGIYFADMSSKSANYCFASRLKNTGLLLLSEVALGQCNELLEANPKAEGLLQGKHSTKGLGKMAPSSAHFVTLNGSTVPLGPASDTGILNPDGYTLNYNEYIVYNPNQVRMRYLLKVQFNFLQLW

DLD-1 = test: Antiproliferative activity against human DLD-1 deficient in BRCA-2 cells measured after 7 days; assay type: functional, cell-based
[2] = target: Voltage-gated inwardly rectifying potassium channel KCNH2 (Homo sapiens, UniProt Q12809); test: Inhibition of human ERG; assay type: toxicity
Voltage-gated inwardly rectifying potassium channel KCNH2, sequence (Q12809 whole entry): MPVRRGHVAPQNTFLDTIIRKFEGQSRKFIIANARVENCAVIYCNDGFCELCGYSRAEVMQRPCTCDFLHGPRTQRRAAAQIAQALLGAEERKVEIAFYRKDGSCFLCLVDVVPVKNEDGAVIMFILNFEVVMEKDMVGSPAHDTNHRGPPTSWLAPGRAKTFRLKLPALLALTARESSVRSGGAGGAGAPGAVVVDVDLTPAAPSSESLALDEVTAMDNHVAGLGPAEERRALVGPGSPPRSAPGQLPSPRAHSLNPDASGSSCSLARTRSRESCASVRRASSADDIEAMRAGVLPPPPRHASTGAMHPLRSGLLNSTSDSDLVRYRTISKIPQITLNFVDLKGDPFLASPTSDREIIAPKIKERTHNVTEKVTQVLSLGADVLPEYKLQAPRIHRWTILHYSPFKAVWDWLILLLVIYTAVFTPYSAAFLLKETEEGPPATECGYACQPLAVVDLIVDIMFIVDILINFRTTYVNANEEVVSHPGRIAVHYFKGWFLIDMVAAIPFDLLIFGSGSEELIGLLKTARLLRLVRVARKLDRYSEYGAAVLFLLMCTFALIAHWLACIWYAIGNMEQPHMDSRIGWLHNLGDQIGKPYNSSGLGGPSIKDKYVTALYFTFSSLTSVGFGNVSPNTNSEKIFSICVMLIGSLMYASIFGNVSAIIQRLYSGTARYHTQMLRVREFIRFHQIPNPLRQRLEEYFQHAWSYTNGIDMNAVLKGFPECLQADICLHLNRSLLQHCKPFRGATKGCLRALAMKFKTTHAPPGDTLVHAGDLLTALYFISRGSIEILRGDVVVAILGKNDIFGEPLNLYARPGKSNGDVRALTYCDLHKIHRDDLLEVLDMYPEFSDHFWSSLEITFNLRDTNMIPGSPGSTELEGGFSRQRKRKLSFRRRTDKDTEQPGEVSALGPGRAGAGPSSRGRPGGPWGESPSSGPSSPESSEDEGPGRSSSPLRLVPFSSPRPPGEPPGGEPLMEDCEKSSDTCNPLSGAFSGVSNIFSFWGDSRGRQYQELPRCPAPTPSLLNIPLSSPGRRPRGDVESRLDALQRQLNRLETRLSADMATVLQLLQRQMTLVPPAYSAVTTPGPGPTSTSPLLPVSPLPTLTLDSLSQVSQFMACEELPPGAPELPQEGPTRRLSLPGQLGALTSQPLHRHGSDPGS

[3] = Aqueous solubility of the compound at pH 7.4; assay type: physicochemical; details: buffer
[4] = target: Poly [ADP-ribose] polymerase 1 (Homo sapiens, UniProt P09874)
Poly [ADP-ribose] polymerase 1, sequence (P09874 whole entry): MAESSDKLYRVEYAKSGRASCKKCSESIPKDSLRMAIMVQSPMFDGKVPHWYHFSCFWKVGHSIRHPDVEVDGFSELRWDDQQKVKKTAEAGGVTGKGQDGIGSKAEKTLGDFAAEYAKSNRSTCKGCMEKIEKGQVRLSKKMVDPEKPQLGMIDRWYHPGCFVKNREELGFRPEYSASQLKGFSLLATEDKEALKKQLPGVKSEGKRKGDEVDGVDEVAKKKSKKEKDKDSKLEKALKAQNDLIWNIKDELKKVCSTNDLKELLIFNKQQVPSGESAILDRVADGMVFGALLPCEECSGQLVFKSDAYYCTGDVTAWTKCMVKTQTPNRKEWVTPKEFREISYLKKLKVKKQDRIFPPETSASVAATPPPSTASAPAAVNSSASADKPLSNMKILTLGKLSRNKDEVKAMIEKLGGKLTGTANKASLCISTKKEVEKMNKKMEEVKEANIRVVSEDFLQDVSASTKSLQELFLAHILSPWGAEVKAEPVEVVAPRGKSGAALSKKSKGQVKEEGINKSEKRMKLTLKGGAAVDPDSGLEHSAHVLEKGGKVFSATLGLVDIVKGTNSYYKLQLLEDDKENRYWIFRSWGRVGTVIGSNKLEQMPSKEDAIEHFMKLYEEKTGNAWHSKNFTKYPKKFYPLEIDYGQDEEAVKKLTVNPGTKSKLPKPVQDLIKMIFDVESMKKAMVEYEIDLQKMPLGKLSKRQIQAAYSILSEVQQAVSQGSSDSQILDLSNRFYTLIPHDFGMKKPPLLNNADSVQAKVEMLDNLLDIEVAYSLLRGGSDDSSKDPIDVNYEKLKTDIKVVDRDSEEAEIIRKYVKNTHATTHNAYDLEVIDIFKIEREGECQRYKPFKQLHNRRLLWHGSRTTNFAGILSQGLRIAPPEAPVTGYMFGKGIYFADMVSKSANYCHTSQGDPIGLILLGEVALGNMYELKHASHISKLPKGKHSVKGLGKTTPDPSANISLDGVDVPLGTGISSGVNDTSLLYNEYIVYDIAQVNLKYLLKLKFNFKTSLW

physchem = details: buffer, pH 7.4
in vitro [5] = details: human, liver microsomes
in vitro [6] = details: human, Caco-2, pH 7.4
[7] = target: Protein mono-ADP-ribosyltransferase PARP8 (Homo sapiens, UniProt Q8N3A8); test: Binding affinity to PARP8 (unknown origin) assessed as apparent dissociation constant; details: read-out: Kd(app)
[8] = target: T1, Protein mono-ADP-ribosyltransferase PARP9 (Homo sapiens, UniProt Q8IXQ6); test: Binding affinity to PARP9 (unknown origin) assessed as apparent dissociation constant; details: read-out: Kd(app)
[9] = target: Protein mono-ADP-ribosyltransferase PARP11 (Homo sapiens, UniProt Q9NR21)
Protein mono-ADP-ribosyltransferase PARP11, sequence (Q9NR21 whole entry): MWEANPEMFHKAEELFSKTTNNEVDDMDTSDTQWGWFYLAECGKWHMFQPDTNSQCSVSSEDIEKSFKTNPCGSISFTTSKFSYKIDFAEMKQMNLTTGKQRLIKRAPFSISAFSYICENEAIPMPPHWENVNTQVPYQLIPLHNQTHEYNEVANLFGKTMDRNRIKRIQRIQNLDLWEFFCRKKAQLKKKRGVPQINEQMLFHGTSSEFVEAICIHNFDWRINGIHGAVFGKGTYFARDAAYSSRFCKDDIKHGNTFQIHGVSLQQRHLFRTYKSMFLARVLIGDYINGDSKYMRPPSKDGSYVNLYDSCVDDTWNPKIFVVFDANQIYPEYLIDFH

[10] = target: Poly [ADP-ribose] polymerase tankyrase-2 (Homo sapiens) (UniProt Q9H2K2)
Poly [ADP-ribose] polymerase tankyrase-2 (Homo sapiens), sequence (Q9H2K2 whole entry): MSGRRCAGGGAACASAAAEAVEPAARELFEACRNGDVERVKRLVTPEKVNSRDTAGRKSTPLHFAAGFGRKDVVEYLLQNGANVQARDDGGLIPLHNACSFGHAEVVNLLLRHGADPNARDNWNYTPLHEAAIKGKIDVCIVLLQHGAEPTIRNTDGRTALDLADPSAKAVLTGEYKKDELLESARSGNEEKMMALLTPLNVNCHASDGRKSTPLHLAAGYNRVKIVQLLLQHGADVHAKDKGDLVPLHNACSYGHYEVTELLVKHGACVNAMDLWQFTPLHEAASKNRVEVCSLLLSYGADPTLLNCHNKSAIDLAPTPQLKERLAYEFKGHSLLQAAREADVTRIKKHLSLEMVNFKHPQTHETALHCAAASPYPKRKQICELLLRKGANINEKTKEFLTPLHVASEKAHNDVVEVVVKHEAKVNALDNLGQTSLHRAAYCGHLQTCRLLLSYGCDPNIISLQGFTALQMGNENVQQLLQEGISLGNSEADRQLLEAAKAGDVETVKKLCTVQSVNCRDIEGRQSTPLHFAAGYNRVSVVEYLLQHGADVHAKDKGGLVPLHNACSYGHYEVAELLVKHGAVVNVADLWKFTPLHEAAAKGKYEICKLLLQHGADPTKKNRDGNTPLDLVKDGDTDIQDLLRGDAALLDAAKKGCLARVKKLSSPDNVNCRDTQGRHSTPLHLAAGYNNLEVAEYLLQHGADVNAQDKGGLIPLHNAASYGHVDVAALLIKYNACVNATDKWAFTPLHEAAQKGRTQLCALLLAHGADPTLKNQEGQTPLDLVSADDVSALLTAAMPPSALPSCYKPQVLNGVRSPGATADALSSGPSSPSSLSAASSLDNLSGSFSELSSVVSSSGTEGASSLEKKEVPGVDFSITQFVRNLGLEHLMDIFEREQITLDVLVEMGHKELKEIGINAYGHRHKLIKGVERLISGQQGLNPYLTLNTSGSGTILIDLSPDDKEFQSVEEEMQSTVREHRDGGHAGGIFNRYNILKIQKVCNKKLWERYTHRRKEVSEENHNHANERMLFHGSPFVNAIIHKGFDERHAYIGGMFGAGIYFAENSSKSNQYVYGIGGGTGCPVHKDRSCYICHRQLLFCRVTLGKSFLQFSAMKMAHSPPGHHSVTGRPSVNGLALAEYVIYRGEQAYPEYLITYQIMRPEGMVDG

[11] = target: Protein mono-ADP-ribosyltransferase TIPARP (Homo sapiens) (UniProt Q7Z3E1)
[12] = target: T2, Protein mono-ADP-ribosyltransferase PARP8 (Homo sapiens) (UniProt Q8N3A8)
T2 sequence (whole entry): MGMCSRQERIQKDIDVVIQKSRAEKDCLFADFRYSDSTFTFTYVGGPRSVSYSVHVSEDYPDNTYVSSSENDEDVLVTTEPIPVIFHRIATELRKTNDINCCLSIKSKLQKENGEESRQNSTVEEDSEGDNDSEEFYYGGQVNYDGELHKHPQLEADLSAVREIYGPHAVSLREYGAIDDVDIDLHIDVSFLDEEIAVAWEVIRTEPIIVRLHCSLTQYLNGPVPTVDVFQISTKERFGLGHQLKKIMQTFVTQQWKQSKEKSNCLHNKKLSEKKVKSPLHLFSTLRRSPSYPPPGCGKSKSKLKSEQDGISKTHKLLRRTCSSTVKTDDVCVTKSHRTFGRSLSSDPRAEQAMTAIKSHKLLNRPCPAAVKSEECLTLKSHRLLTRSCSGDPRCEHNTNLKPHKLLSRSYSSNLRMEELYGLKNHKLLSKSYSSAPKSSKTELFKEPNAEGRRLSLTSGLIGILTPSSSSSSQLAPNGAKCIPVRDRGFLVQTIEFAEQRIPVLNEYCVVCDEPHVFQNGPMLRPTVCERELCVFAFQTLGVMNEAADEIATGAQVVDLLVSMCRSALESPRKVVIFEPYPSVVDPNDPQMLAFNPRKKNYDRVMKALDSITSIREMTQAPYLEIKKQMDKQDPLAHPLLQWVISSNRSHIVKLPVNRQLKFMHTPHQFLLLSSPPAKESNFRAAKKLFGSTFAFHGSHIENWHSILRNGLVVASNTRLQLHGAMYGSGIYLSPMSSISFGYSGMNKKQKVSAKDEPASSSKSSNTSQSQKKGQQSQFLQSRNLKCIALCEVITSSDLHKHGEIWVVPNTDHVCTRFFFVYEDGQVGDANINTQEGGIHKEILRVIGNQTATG

[13] = target: T1, Protein mono-ADP-ribosyltransferase PARP9
[14] = target: Protein mono-ADP-ribosyltransferase PARP12 (Homo sapiens) (UniProt Q9H0J9)
Protein mono-ADP-ribosyltransferase PARP12 (Homo sapiens), sequence (Q9H0J9 whole entry): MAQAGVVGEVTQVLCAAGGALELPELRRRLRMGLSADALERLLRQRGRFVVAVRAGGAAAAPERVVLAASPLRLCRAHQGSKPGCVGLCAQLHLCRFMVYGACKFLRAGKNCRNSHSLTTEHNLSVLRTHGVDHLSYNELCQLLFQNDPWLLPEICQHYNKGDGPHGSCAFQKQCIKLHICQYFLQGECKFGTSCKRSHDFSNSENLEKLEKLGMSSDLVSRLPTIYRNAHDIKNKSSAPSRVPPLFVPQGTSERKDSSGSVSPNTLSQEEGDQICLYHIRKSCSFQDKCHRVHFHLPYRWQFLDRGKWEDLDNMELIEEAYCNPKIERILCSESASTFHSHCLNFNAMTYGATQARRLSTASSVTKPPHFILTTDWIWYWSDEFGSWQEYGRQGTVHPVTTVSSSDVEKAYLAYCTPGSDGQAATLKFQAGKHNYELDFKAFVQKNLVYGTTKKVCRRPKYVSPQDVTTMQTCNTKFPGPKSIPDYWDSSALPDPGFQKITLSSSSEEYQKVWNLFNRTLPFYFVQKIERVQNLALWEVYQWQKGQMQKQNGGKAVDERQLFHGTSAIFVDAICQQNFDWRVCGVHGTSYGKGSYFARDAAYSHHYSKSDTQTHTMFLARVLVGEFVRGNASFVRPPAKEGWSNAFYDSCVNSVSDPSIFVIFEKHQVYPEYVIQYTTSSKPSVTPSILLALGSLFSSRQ

[15] = target: Protein mono-ADP-ribosyltransferase PARP14 (Homo sapiens) (UniProt Q460N5)
[16] = target: Protein mono-ADP-ribosyltransferase PARP3 (Homo sapiens) (UniProt Q9Y6F1); test: Binding affinity to PARP3 (unknown origin) assessed as apparent dissociation constant
[17] = target: Protein mono-ADP-ribosyltransferase PARP16 (Homo sapiens, UniProt Q8N5Y8); test: Binding affinity to PARP16 (unknown origin) assessed as apparent dissociation constant; details: read-out: Kd(app)
[18] = target: Poly [ADP-ribose] polymerase tankyrase-1 (Homo sapiens) (UniProt O95271); test: Binding affinity to PARP5a (unknown origin) assessed as apparent dissociation constant
[19] = Intrinsic clearance in human hepatocytes measured per million of cells; assay type: ADME, cell-based, Hepatocyte; details: read-out: CLH
[20] = target: Poly [ADP-ribose] polymerase tankyrase-1 (Homo sapiens, UniProt O95271)

Row | SMILES | IC50 [1] | IC50 (DLD-1; Homo sapiens, DLD-1, 168 h) | IC50 [2] | solubility [3] | IC50 [4] | logD (physchem) | microsomal CLint (in vitro [5]) | efflux ratio (in vitro [6]) | further results
1 | Cc1cnc(N2CCN(Cc3ccc4c5c(c(=O)[nH]c4c3)CCCN5)CC2)n1C | 1100 nM | 52 nM | 30000 nM | 136 µM (≈ 53.4 µg/mL) | 51 nM | 2.2 | 15 µL/min/mg | 3.6 | –
2 | CNCc1ccc(-c2[nH]c3cc(F)cc4c3c2CCNC4=O)cc1 [RUCAPARIB] | – | 27 nM | – | – | – | – | – | – | Kd [7]: > 10000 nM; Kd [8]: 3100 nM; Kd [9]: > 10000 nM; Kd(app) [10]: Active
3 | CCc1cc2ccc(CN3CCN(c4cnc(C(=O)NC)cn4)CC3)cc2[nH]c1=O | 5900 nM | 4400 nM | > 40000 nM | 2 µM (≈ 0.813 µg/mL) | – | 2.7 | 18 µL/min/mg | – | –
4 | O=c1[nH]c(CCCN2CC=C(c3ccc(F)cc3)CC2)nc2c(Cl)cccc12 | 20000 nM | > 23000 nM | 2600 nM | 56 µM (≈ 22.3 µg/mL) | 65 nM | 3.8 | 35 µL/min/mg | – | –
5 | C[C@]1(c2nc3c(C(N)=O)cccc3[nH]2)CCCN1 [VELIPARIB] | – | – | – | – | – | – | – | – | IC50 (DLD-1; dld-1): 750 nM; Kd(app) [11]: Active; Kd(app) [12]: Active; Kd(app) [13]: Active; Kd(app) [14]: Active; Kd(app) [15]: Active
6 | CCc1cc2ccc(CN3CCN(c4ccc(F)cc4F)CC3)cc2[nH]c1=O | > 26000 nM | 1 nM | 2300 nM | 0.2 µM (≈ 0.0767 µg/mL) | 8 nM | 4.2 | 16 µL/min/mg | – | –
7 | NC(=O)c1cccc2cn(-c3ccc([C@@H]4CCCNC4)cc3)nc12 [NIRAPARIB] | – | 149 nM | – | – | – | – | – | – | Kd(app) [16]: Active; Kd [17]: > 10000 nM; Kd [9]: > 10000 nM; Kd(app) [12]: Active; Kd(app) [13]: Active; Kd(app) [18]: Active
8 | CCc1cc2ccc(CN3CCN(c4cnc(C(=O)NC)nc4)CC3)cc2[nH]c1=O | 2400 nM | 2500 nM | > 40000 nM | 58 µM (≈ 23.6 µg/mL) | 8 nM | 1.8 | < 3 µL/min/mg | 14 | –
9 | Cc1cnc(N2CCN(Cc3ccc4c5c(c(=O)[nH]c4c3)CCCC5)CC2)n1C | 490 nM | – | 3800 nM | 46 µM (≈ 18 µg/mL) | – | 3.2 | 57 µL/min/mg | – | –
10 | CCc1cc2ccc(CN3CCN(c4ccc(C(=O)NC)cc4)CC3)cc2[nH]c1=O | 3900 nM | 7 nM | 8300 nM | < 0.25 µM | – | 3 | 11 µL/min/mg | – | –
11 | CCc1cc2ccc(CN3CCN(c4ccc(C(=O)NC)nn4)CC3)cc2[nH]c1=O | 7400 nM | 294 nM | > 40000 nM | 30 µM (≈ 12.2 µg/mL) | 4 nM | 2.4 | 14 µL/min/mg | 1.5 | –
12 | O=c1[nH]c(CCCN2CCN(c3ccc(F)cc3F)CC2)nc2c(Cl)cccc12 | 22000 nM | – | 1400 nM | 6 µM (≈ 2.51 µg/mL) | – | 3.9 | 58 µL/min/mg | – | –
13 | Cc1cnc(N2CCN(CCCc3nc4c(Cl)cccc4c(=O)[nH]3)CC2)n1C | 4000 nM | 180 nM | 1500 nM | 4 µM (≈ 1.6 µg/mL) | – | 2.3 | 44 µL/min/mg | – | –
14 | Cc1cnc(N2CCN(Cc3ccc4c(c3)[nH]c(=O)c3ccccc34)CC2)n1C | 600 nM | – | 3900 nM | < 12 µM | – | 3.3 | 26 µL/min/mg | – | –
15 | CCc1cc2ccc(CN3CCN(c4ncc(C)n4C)CC3)cc2[nH]c1=O | 4200 nM | 3 nM | 12000 nM | 224 µM (≈ 81.9 µg/mL) | – | 2.7 | 25 µL/min/mg | – | –
16 | CCc1cc2cnc(CN3CCN(c4ccc(C(=O)NC)nc4)CC3)cc2[nH]c1=O | – | 2 nM | – | 31 µM (≈ 12.6 µg/mL) | – | 2 | 6 µL/min/mg | – | hepatocyte CLint [19]: < 1 µL/min/1e6 cells
17 | Cc1cnc(N2CCN(Cc3ccc4c(c3)[nH]c(=O)c3cccnc34)CC2)n1C | 9100 nM | 15 nM | 11000 nM | 15 µM (≈ 5.83 µg/mL) | 30 nM | 2.5 | 30 µL/min/mg | 1.3 | –
18 | Cc1cnc(N2CCN(Cc3ccc4c(c3)[nH]c(=O)c3ncccc34)CC2)n1C | 28000 nM | 121 nM | > 40000 nM | 383 µM (≈ 149 µg/mL) | – | 1.7 | 9 µL/min/mg | – | –
19 | CCc1nc2ccc(CN3CCN(c4ccc(C(=O)NC)nc4)CC3)cc2[nH]c1=O | 4900 nM | 4 nM | – | 12 µM (≈ 4.88 µg/mL) | – | 2.4 | 7 µL/min/mg | 1 | hepatocyte CLint [19]: 1.9 µL/min/1e6 cells
20 | CCc1cc2ccc(CN3CCN(c4ccc(C(=O)NC)nc4)CC3)cc2[nH]c1=O | 1100 nM | 3 nM | 21000 nM | 9 µM (≈ 3.65 µg/mL) | 5 nM | 2.8 | 17 µL/min/mg | 0.7 | –
21 | Cc1cnc(N2CCN(Cc3ccc4c5c(c(=O)[nH]c4c3)COCC5)CC2)n1C | 6600 nM | – | > 40000 nM | 158 µM (≈ 62.2 µg/mL) | 38 nM | 1.9 | 8 µL/min/mg | 10 | –
22 | NC(=O)c1cc(F)cc2c1C(=O)N(C1CCN(C3CCC(F)(F)CC3)CC1)C2 | – | 2000 nM | – | – | – | – | – | – | IC50 [20]: > 100000 nM
